Measurements published in PMC7040082 (Journal of Pharmacokinetics and Pharmacodynamics, 2019).
Several values for one entry are separate records, joined by “and”; a condition that tells them apart may be missing. Identical values can stand only once. Like-named read-outs stand apart in the source and are kept apart here. Blank lines part the entries; values can stand above or below the compound they belong to.

Key:
[1] = for β (PD scale parameter, first arrival time of drug): constrained to 25-30 s; for AUC for CGPC(t) as percent of dose eliminated, 72h-∞: late-time 72 h to ∞ (drug mass remaining at 72 h); for AUC for CGPC(t) as percent of dose eliminated, 1/3-72h: sample-times 20 min to 72 h
[2] = all samples 20 min to 72 h; ref [1]; cited from earlier work
[3] = cited from earlier work; for urinary metformin recovery: human, at 60 to 72 h
[4] = in vivo; settings: both, mixed-breed, dog, serum, iv, mean of seven dogs
[5] = Noncompartmental (NC) analysis of IV bolus serum concentrations in dogs
[6] = dog, in vivo; cited from earlier work
[7] = in vivo; cited from earlier work
[8] = GPC fit, single IV bolus, individual dogs (Dog 1-7)
[9] = GPC fit, single IV bolus, mean of seven dogs

AUC for CGPC(t) as percent of dose eliminated, 0-72h ([1]; 0 to 72 h (model renal excreted), mean of seven dogs): 78.9% | β (PD scale parameter, first arrival time of drug) ([1]; GPC fit, individual dogs (Dog 1-7)): 30 s and 25 s | β (PD scale parameter, first arrival time of drug) ([1]; GPC fit, mean of seven dogs): 26 s | Peak (time at the maximum of the GPC model) [1, 9]: 2.73 min | a (GD shape parameter) [1, 9]: 0.6235 | b (GD rate parameter) [1, 9]: 0.8882 per h | α (PD shape parameter) [1, 9]: 0.1778 | CL as percent of estimated total renal plasma flow (RPF) ([1]; GPC model mean CL, RPF≈17.86 mlmin^-1kg^-1 from PAH meta-analysis): 84.8% | early concentration peak, total elapsed time ([1]; GPC models, range of seven dogs): 0.66 to 6.17 min | CL as percent of RPF using geometric means ([1]; GPC, GM EPAH of 35 controls): 84.7% | decrease of drug mass in the body from the initial dose ([1]; at 72 h, […] remaining): 5 fold | AUC for CGPC(t) as percent of dose eliminated, 72h-∞ ([1]; mean of seven dogs): 21.1% | decrease of serum concentration from estimated peak concentration ([1]; over 72 h): 1000 fold | AUC for CGPC(t) as percent of dose eliminated, 1/3-72h ([1]; mean of seven dogs): 58.5% | AUC ([4]; AUC, GPC fit, single IV bolus): 23600 ng·h/mL | clearance ([4]; CL GPC, GPC model): 15.1 mL/min/kg | clearance ([4]; CL, GPC fit, single IV bolus): 15.1 mL/min/kg | AUC (E2 fit, single IV bolus, mean of seven dogs): 15.8 mgh/L | p1 (fraction of AUC from first exponential term) (E2 fit, mean of seven dogs): 79.3% | p2 (fraction of AUC from second exponential term) (E2 fit, mean of seven dogs): 20.7% | λ1 (E2 fit, mean of seven dogs): 0.721 h⁻¹ | λ2 (E2 fit, mean of seven dogs): 0.0490 h⁻¹ | CL as percent of expected RPF (E2 mean CL, RPF≈17.86 mlmin^-1kg^-1): 123.7% | CL E2 (biexponential model, mean of seven dogs): 22.1 mlmin^-1kg^-1 | E2 CL-value greater than GPC CL-value (dog 6): 41% | CL as percent of expected RPF ([5]; NC mean CL, RPF≈17.86 mlmin^-1kg^-1): 104.7% | NC CL-value greater than GPC CL-value ([5]; dog 6): 25%
SMILES: CN(C)C(=N)N=C(N)N [metformin, 1,1-dimethylbiguanide]
AUC for CGPC(t) as percent of dose eliminated, 0-72h ([1]; 0 to 72 h, individual dogs 1-7): 91.3% and 71.6% and 84.4% and 79.7% and 67.0% and 82.6% and 75.9% | CL [1, 8]: 11.4 ml/minkg and 14.7 ml/minkg and 9.8 ml/minkg and 11.5 ml/minkg and 26.7 ml/minkg and 19.4 ml/minkg and 12.4 ml/minkg | Peak (time at the maximum of the GPC model) [1, 8]: 1.34 min and 4.85 min and 0.66 min and 6.17 min and 2.21 min and 1.70 min | a (GD shape parameter) [1, 8]: 0.5194 and 0.7629 and 0.3493 and 0.8112 and 0.6689 and 0.6092 and 0.6435 | b (GD rate parameter) [1, 8]: 0.6137 per h and 1.0518 per h and 0.7318 per h and 0.9993 per h and 0.9107 per h and 0.8062 per h and 1.1035 per h | α (PD shape parameter) [1, 8]: 0.1929 and 0.1571 and 0.2644 and 0.1365 and 0.2010 and 0.1726 and 0.1199 | CL GPC ([1]; GPC model, individual dogs 1-7): 14.7 mlmin^-1kg^-1 and 9.8 mlmin^-1kg^-1 and 11.5 mlmin^-1kg^-1 and 26.7 mlmin^-1kg^-1 and 19.4 mlmin^-1kg^-1 and 12.4 mlmin^-1kg^-1 and 11.4 mlmin^-1kg^-1 | AUC for CGPC(t) as percent of dose eliminated, 72h-∞ ([1]; individual dogs 1-7): 8.7% and 28.4% and 15.6% and 20.3% and 33.0% and 17.4% and 24.1% | AUC for CGPC(t) as percent of dose eliminated, 1/3-72h ([1]; individual dogs 1-7): 53.1% and 58.7% and 63.7% and 60.5% and 50.8% and 62.0% | range of serum sample concentrations [2]: 9.78 to 19,100 ng/ml | urine recovery from IV metformin ([3]; 48 h, may have been inflated, ref Pentikäinen et al. [21]): 99.9% | urinary metformin recovery ([3]; ref Table 1 of [19]): 86% | urinary metformin recovery ([3]; ref Table II of [20]): 78.9%

SMILES: Nc1ccc(C(=O)NCC(=O)O)cc1 [PAH, p-aminohippurate]
CLPAH renal clearance [6]: 13.51 mlmin^-1kg^-1 | EPAH arteriovenous extraction ratio [6]: 0.7564 | nominal canine EPAH [6]: 75.6% | EPAH in humans [7]: circa 90%
